# Calls of active or inactive are those of the source. The rule behind the calls is not given here.
# Columns and labels:
# [1] = Induction of apoptosis in mouse BaF3 cells stably expressing KIF5B-RET-G810C mutant assessed as early apoptotic cells at 900 nM measured after 48 hrs by Annexin V-FITC/7-AAD staining based flow cytometric analysis (reference value: 8.57 %); assay type: functional
# BaF3 [2] = experiment: Antiproliferative activity against mouse BaF3 cells stably expressing CCDC6-RET-V804M mutant incubated for 72 hrs by CCK-8 assay; assay type: functional, cell-based; details: BaF3, 72 h
# [3] = Induction of apoptosis in mouse BaF3 cells stably expressing wildtype KIF5B-RET fusion protein assessed as viable cells at 100 nM measured after 48 hrs by Annexin V-FITC/7-AAD staining based flow cytometric analysis (reference value: 86.65 %); assay type: functional; details: read-out: Activity
# [4] = Effect on RET protein level in mouse BaF3 cells stably expressing KIF5B-RET-G810R mutant assessed as fold change at 100 nM measured after 6 hrs by Western blot analysis (reference value: 1); assay type: functional
# [5] = Induction of apoptosis in mouse BaF3 cells stably expressing KIF5B-RET-G810C mutant assessed as viable cells at 33.3 nM measured after 48 hrs by Annexin V-FITC/7-AAD staining based flow cytometric analysis (reference value: 86.58 %); assay type: functional; details: read-out: Activity
# [6] = Effect on Shc protein level in mouse BaF3 cells stably expressing wildtype KIF5B-RET assessed as fold change at 33.3 nM measured after 6 hrs by Western blot analysis; assay type: functional
# [7] = Induction of apoptosis in mouse BaF3 cells stably expressing wildtype KIF5B-RET fusion protein assessed as necrotic cells at 33.3 nM measured after 48 hrs by Annexin V-FITC/7-AAD staining based flow cytometric analysis (reference value: 2.40 %); assay type: functional
# [8] = target: Proto-oncogene tyrosine-protein kinase receptor Ret (Homo sapiens, UniProt P07949); experiment: Inhibition of wildtype RET (unknown origin) in presence of ATP by FRET-based Z'-Lyte assay
# Chain of Proto-oncogene tyrosine-protein kinase receptor Ret (P07949 whole entry): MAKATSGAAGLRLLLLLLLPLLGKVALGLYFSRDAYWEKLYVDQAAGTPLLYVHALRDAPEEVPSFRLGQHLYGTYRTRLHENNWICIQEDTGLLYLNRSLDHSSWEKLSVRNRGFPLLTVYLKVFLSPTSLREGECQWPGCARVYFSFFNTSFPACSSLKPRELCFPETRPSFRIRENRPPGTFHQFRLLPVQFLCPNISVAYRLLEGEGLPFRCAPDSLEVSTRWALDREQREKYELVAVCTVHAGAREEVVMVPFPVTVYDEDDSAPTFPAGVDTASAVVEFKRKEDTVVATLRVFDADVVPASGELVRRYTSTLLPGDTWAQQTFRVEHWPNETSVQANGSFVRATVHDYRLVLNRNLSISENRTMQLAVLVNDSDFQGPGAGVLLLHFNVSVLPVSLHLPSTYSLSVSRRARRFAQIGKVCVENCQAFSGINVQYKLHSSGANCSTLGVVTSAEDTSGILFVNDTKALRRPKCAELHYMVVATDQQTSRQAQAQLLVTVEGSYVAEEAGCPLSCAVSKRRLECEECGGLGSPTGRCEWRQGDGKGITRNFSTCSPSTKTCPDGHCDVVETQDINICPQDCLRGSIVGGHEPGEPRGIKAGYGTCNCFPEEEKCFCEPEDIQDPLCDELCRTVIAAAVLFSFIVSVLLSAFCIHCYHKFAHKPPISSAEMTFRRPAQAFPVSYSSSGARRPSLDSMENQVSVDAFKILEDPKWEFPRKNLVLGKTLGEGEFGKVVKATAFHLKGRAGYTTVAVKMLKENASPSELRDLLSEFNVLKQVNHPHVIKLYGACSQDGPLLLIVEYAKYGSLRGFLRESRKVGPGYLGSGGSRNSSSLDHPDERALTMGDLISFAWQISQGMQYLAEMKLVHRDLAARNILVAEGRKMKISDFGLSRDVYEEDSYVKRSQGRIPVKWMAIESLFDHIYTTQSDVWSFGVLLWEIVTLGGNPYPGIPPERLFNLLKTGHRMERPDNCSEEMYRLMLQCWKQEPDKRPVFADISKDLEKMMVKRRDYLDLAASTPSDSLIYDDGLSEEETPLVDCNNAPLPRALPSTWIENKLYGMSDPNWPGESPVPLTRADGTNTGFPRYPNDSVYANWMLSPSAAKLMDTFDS
# BaF3 [9] = experiment: Antiproliferative activity against mouse BaF3 cells stably expressing KIF5B-RET-G810R mutant incubated for 72 hrs by CCK-8 assay; assay type: functional, cell-based; details: BaF3, 72 h
# [10] = Effect on RET protein level in mouse BaF3 cells stably expressing KIF5B-RET-G810C mutant assessed as fold change at 300 nM measured after 6 hrs by Western blot analysis (reference value: 1); assay type: functional
# [11] = Induction of apoptosis in mouse BaF3 cells stably expressing KIF5B-RET-G810C mutant assessed as necrotic cells at 300 nM measured after 48 hrs by Annexin V-FITC/7-AAD staining based flow cytometric analysis (reference value: 2.89 %); assay type: functional
# [12] = Effect on RET protein level in mouse BaF3 cells stably expressing KIF5B-RET-G810C mutant assessed as fold change at 33.3 nM measured after 6 hrs by Western blot analysis (reference value: 1); assay type: functional
# [13] = Induction of apoptosis in mouse BaF3 cells stably expressing wildtype KIF5B-RET fusion protein assessed as viable cells at 11.1 nM measured after 48 hrs by Annexin V-FITC/7-AAD staining based flow cytometric analysis (reference value: 86.65 %); assay type: functional; details: read-out: Activity
# [14] = Effect on Shc protein level in mouse BaF3 cells stably expressing wildtype KIF5B-RET assessed as fold change at 100 nM measured after 6 hrs by Western blot analysis; assay type: functional
# [15] = Induction of apoptosis in mouse BaF3 cells stably expressing KIF5B-RET-G810C mutant assessed as early apoptotic cells at 300 nM measured after 48 hrs by Annexin V-FITC/7-AAD staining based flow cytometric analysis (reference value: 8.57 %); assay type: functional
# [16] = Induction of apoptosis in mouse BaF3 cells stably expressing KIF5B-RET-G810C mutant assessed as late apoptotic cells at 300 nM measured after 48 hrs by Annexin V-FITC/7-AAD staining based flow cytometric analysis (reference value: 1.96 %); assay type: functional
# [17] = PROTAC activity at CRBN/KIF5B-RET (unknown origin) expressed in mouse BaF3 cells assessed as induction of RET degradation measured after 6 hrs by Western blot analysis; details: Homo sapiens, BaF3, 6 h
# [18] = Induction of apoptosis in mouse BaF3 cells stably expressing wildtype KIF5B-RET fusion protein assessed as necrotic cells at 100 nM measured after 48 hrs by Annexin V-FITC/7-AAD staining based flow cytometric analysis (reference value: 2.40 %); assay type: functional
# BaF3 [19] = experiment: PROTAC activity at CRBN/IKZF1 in mouse BaF3 cells overexpressing KIF5B-RET assessed as induction of […] at 10 to 1000 nM incubated for 6 hrs by Western blot analysis; assay type: cell-based; details: dose 10-1000 nM
# [20] = Induction of apoptosis in mouse BaF3 cells stably expressing KIF5B-RET-G810C mutant assessed as early apoptotic cells at 33.3 nM measured after 48 hrs by Annexin V-FITC/7-AAD staining based flow cytometric analysis (reference value: 8.57 %); assay type: functional
# [21] = Induction of apoptosis in mouse BaF3 cells stably expressing wildtype KIF5B-RET fusion protein assessed as early apoptotic cells at 300 nM measured after 48 hrs by Annexin V-FITC/7-AAD staining based flow cytometric analysis (reference value: 9.92 %); assay type: functional
# BaF3 [22] = experiment: PROTAC activity at CRBN/KIF5B-RET (unknown origin) expressed in mouse BaF3 cells assessed as induction of RET degradation at 1000 nM measured after 6 hrs by Western blot analysis relative to control; assay type: cell-based
# [23] = tested on: Kinesin-1 heavy chain/ Tyrosine-protein kinase receptor RET (Homo sapiens), P07949+P33176 [G810C]; experiment: In vivo PROTAC activity at CRBN/KIF5B-RET-G810C mutant in male BALB/c mouse model implanted with mouse BaF3 cells stably expressing KIF5B-RET-G810C mutant assessed as induction of RET degradation in tumor at 10 mg/kg, ip measured after 3 days by Western blotting analysis relative to control; assay type: functional, organism-based; details: time 3.0 day
# [24] = Effect on Shc protein level in mouse BaF3 cells stably expressing KIF5B-RET-G810R mutant assessed as fold change at 300 nM measured after 6 hrs by Western blot analysis (reference value: 1); assay type: functional
# [25] = Potency index, ratio of selpercatinib IC50 to test compound IC50 for antiproliferative activity against mouse BaF3 cells stably expressing KIF5B-RET-G810S mutant incubated for 72 hrs by CCK-8 assay; assay type: functional
# [26] = Effect on Shc protein level in mouse BaF3 cells stably expressing KIF5B-RET-G810R mutant assessed as fold change at 11.1 nM measured after 6 hrs by Western blot analysis (reference value: 1); assay type: functional
# [27] = Induction of apoptosis in mouse BaF3 cells stably expressing wildtype KIF5B-RET fusion protein assessed as late apoptotic cells at 300 nM measured after 48 hrs by Annexin V-FITC/7-AAD staining based flow cytometric analysis (reference value: 1.03 %); assay type: functional
# [28] = PROTAC activity at CRBN/KIF5B-RET-G810R mutant (unknown origin) expressed in mouse BaF3 cells assessed as induction of RET degradation measured after 6 hrs by Western blot analysis; assay type: cell-based; details: BaF3, 6 h
smiles,measurement,setting,value
COc1ccc(CN2C3CC2CN(c2ccc(-c4cc(-c5cnn(C6CCN(CCCCCC#Cc7cccc8c7CN(C7CCC(=O)NC7=O)C8=O)CC6)c5)cn5ncc(C#N)c45)cn2)C3)cn1 (stereo not drawn),Activity,[1],54.08%
same,IC50,BaF3 [2],10 nM
same,viability at 0.1 µM,[3],64.9%
same,fold change (FC),[4],0.9
same,viability at 0.0333 µM,[5],85.5%
same,fold change (FC),[6],1
same,Activity,[7],1.79%
same,IC50,[8],5.7 nM
same,IC50,BaF3 [9],150 nM
same,fold change (FC),[10],0.3
same,Activity,[11],2.15%
same,fold change (FC),[12],0.6
same,viability at 0.0111 µM,[13],83.8%
same,fold change (FC),[14],1
same,Activity,[15],31.81%
same,Activity,[16],2.91%
same,DC50,[17],4.7 nM
same,Activity,[18],0.52%
same,Activity,BaF3 [19],inactive
same,Activity,[20],10.15%
same,Activity,[21],48.33%
same,Activity,BaF3 [22],74%
same,Activity,[23],47%
same,fold change (FC),[24],0.9
same,Ratio IC50,[25],6.3
same,fold change (FC),[26],0.9
same,Activity,[27],1%
same,DC50,[28],> 300 nM

# Reference: ChEMBL document CHEMBL6087474, “Discovery of an Efficacious RET PROTAC Degrader with Enhanced Antiproliferative Activity against Resistant Cancer Cells Harboring RET Solvent-Front Mutations” (J Med Chem, 2025)
